Read-outs that look alike come from different tables or passages of the source.
Tests used:
[1] = system: rodent; conditions: cited from earlier work
[2] = system: mRNA expressed from the genes (A) to (D) in rat liver; assay: Behavior of genes (mRNA expression level, oligo-DNA microarray) in rat liver after 28-day oral administration; format: in vivo
Protocol: A test solution was prepared by dissolving each of the carcinogens and the non-carcinogens shown in Tables 2 to 6 in the corresponding solvent shown in Tables 2 to 6. Each of the thus prepared test solutions and the solvents used for the preparation was administered by oral gavage to rats in each group. As the rats, male rats (F344 SPF rats) at 5 weeks of age obtained from Charles River Laboratories Japan, Inc. were used. The animals were divided into groups, each containing four individuals. The volume of the solvent administered to the vehicle control group was set to the same volume as that of the test solution administered to the carcinogen administration group or the non-carcinogen administration group. The administration of the test solution or the solvent was performed once daily for 28 days. Apiece was excised from the liver of each of the rats after a lapse of 28 days from the initiation of the administration, and the total RNA was extracted and purified.
The expression level of mRNA was compared between each of the chemical substance administration groups and the corresponding vehicle control group, and genes that satisfy the requirements described in (A) to (D) were selected, respectively.
The case where the expression level of mRNA in the carcinogen administration group or the non-carcinogen administration group is 1.5 times or more or 1/1.5 or less of the expression level of the corresponding mRNA expressed in the control group was determined to be significant. In this connection, the determination as to whether or not the change is significant was performed by taking into consideration the direction of increase or decrease in the expression level. In the case where the direction of increase or decrease is different as compared with the case where another carcinogen was administered, the change was determined to be not significant.

[3] = classification of the substance (C+/C−)
[4] = gene group (A), Unigene No. Rn.167075
[5] = gene group (C), Unigene No. Rn.120914

SMILES: O=C(c1ccccc1)C(O)c1ccccc1 (stereo not drawn) [TS038, Benzoin]
- Carcinogenicity [1, 3]: C−
- Behavior of gene caused by administration of chemical substance, Gene No. 4846 ([2]; gene group (A), Unigene No. Rn.144554): −
- Behavior of gene caused by administration of chemical substance, Gene No. 2026 [2, 4]: +
- Behavior of gene caused by administration of chemical substance, Gene No. 4218 [2, 4]: −
- Behavior of gene caused by administration of chemical substance, Gene No. 6182 ([2]; gene group (A), Unigene No. Rn.5834): −
- Behavior of gene caused by administration of chemical substance, Gene No. 5600 ([2]; gene group (A), Unigene No. Rn.9836): −
- Behavior of gene caused by administration of chemical substance, Gene No. 1494 ([2]; gene group (B), Unigene No. Rn.1430): −
- Behavior of gene caused by administration of chemical substance, Gene No. 2045 ([2]; gene group (B), Unigene No. Rn.19329): −
- Behavior of gene caused by administration of chemical substance, Gene No. 2203 ([2]; gene group (B), Unigene No. Rn.21240): −
- Behavior of gene caused by administration of chemical substance, Gene No. 533 ([2]; gene group (C), Unigene No. Rn.106184): −
- Behavior of gene caused by administration of chemical substance, Gene No. 725 ([2]; gene group (C), Unigene No. Rn.108075): −
- Behavior of gene caused by administration of chemical substance, Gene No. 1163 ([2]; gene group (C), Unigene No. Rn.11766): −
- Behavior of gene caused by administration of chemical substance, Gene No. 4973 ([2]; gene group (C), Unigene No. Rn.118529): +
- Behavior of gene caused by administration of chemical substance, Gene No. 4095 ([2]; gene group (C), Unigene No. Rn.119024): +
- Behavior of gene caused by administration of chemical substance, Gene No. 1334 [2, 5]: −
- Behavior of gene caused by administration of chemical substance, Gene No. 6620 [2, 5]: −
- Behavior of gene caused by administration of chemical substance, Gene No. 6303 ([2]; gene group (C), Unigene No. Rn.123063): +
- Behavior of gene caused by administration of chemical substance, Gene No. 5878 ([2]; gene group (C), Unigene No. Rn.143213): −
- Behavior of gene caused by administration of chemical substance, Gene No. 1131 ([2]; gene group (C), Unigene No. Rn.144946): −
- Behavior of gene caused by administration of chemical substance, Gene No. 1562 ([2]; gene group (C), Unigene No. Rn.14744): −
- Behavior of gene caused by administration of chemical substance, Gene No. 1741 ([2]; gene group (C), Unigene No. Rn.1647): −
- Behavior of gene caused by administration of chemical substance, Gene No. 893 ([2]; gene group (C), Unigene No. Rn.164817): −
- Behavior of gene caused by administration of chemical substance, Gene No. 6026 ([2]; gene group (C), Unigene No. Rn.167685): +
- Behavior of gene caused by administration of chemical substance, Gene No. 154 ([2]; gene group (C), Unigene No. Rn.185941): +
- Behavior of gene caused by administration of chemical substance, Gene No. 1993 ([2]; gene group (C), Unigene No. Rn.18728): +
- Behavior of gene caused by administration of chemical substance, Gene No. 813 ([2]; gene group (C), Unigene No. Rn.201760): −
- Behavior of gene caused by administration of chemical substance, Gene No. 2494 ([2]; gene group (C), Unigene No. Rn.23969): −
- Behavior of gene caused by administration of chemical substance, Gene No. 2546 ([2]; gene group (C), Unigene No. Rn.24561): +
- Behavior of gene caused by administration of chemical substance, Gene No. 3776 ([2]; gene group (C), Unigene No. Rn.43232): −
- Behavior of gene caused by administration of chemical substance, Gene No. 3929 ([2]; gene group (C), Unigene No. Rn.4620): −
- Behavior of gene caused by administration of chemical substance, Gene No. 1119 ([2]; gene group (C), Unigene No. Rn.9757): +
- Behavior of gene caused by administration of chemical substance, Gene No. 6742 ([2]; gene group (C), Unigene No. Rn.9779): −
- Behavior of gene caused by administration of chemical substance, Gene No. 5634 ([2]; gene group (C), Unigene No. Rn.9862): +
- Behavior of gene caused by administration of chemical substance, Gene No. 5726 ([2]; gene group (D), Unigene No. Rn.9939): −

SMILES: ClC(Cl)Cl [TS056, Chloroform]
- Carcinogenicity [1, 3]: C+
- Behavior of gene caused by administration of chemical substance, Gene No. 154 ([2]; rat, in vivo): +
- Behavior of gene caused by administration of chemical substance, Gene No. 533 ([2]; rat, in vivo): +
- Behavior of gene caused by administration of chemical substance, Gene No. 725 ([2]; rat, in vivo): +
- Behavior of gene caused by administration of chemical substance, Gene No. 813 ([2]; rat, in vivo): +
- Behavior of gene caused by administration of chemical substance, Gene No. 893 ([2]; rat, in vivo): +
- Behavior of gene caused by administration of chemical substance, Gene No. 1119 ([2]; rat, in vivo): +
- Behavior of gene caused by administration of chemical substance, Gene No. 1131 ([2]; rat, in vivo): +
- Behavior of gene caused by administration of chemical substance, Gene No. 1163 ([2]; rat, in vivo): +
- Behavior of gene caused by administration of chemical substance, Gene No. 1334 ([2]; rat, in vivo): +
- Behavior of gene caused by administration of chemical substance, Gene No. 1494 ([2]; rat, in vivo): +
- Behavior of gene caused by administration of chemical substance, Gene No. 1562 ([2]; rat, in vivo): +
- Behavior of gene caused by administration of chemical substance, Gene No. 1741 ([2]; rat, in vivo): +
- Behavior of gene caused by administration of chemical substance, Gene No. 1993 ([2]; rat, in vivo): +
- Behavior of gene caused by administration of chemical substance, Gene No. 2026 ([2]; rat, in vivo): +
- Behavior of gene caused by administration of chemical substance, Gene No. 2045 ([2]; rat, in vivo): −
- Behavior of gene caused by administration of chemical substance, Gene No. 2203 ([2]; rat, in vivo): −
- Behavior of gene caused by administration of chemical substance, Gene No. 2494 ([2]; rat, in vivo): +
- Behavior of gene caused by administration of chemical substance, Gene No. 2546 ([2]; rat, in vivo): +
- Behavior of gene caused by administration of chemical substance, Gene No. 3776 ([2]; rat, in vivo): +
- Behavior of gene caused by administration of chemical substance, Gene No. 3929 ([2]; rat, in vivo): +
- Behavior of gene caused by administration of chemical substance, Gene No. 4095 ([2]; rat, in vivo): +
- Behavior of gene caused by administration of chemical substance, Gene No. 4218 ([2]; rat, in vivo): −
- Behavior of gene caused by administration of chemical substance, Gene No. 4846 ([2]; rat, in vivo): −
- Behavior of gene caused by administration of chemical substance, Gene No. 4973 ([2]; rat, in vivo): +
- Behavior of gene caused by administration of chemical substance, Gene No. 5600 ([2]; rat, in vivo): −
- Behavior of gene caused by administration of chemical substance, Gene No. 5634 ([2]; rat, in vivo): +
- Behavior of gene caused by administration of chemical substance, Gene No. 5726 ([2]; rat, in vivo): −
- Behavior of gene caused by administration of chemical substance, Gene No. 5878 ([2]; rat, in vivo): +
- Behavior of gene caused by administration of chemical substance, Gene No. 6026 ([2]; rat, in vivo): +
- Behavior of gene caused by administration of chemical substance, Gene No. 6182 ([2]; rat, in vivo): −
- Behavior of gene caused by administration of chemical substance, Gene No. 6303 ([2]; rat, in vivo): +
- Behavior of gene caused by administration of chemical substance, Gene No. 6620 ([2]; rat, in vivo): +
- Behavior of gene caused by administration of chemical substance, Gene No. 6742 ([2]; rat, in vivo): +

SMILES: O=[N+]([O-])c1ccc2ccc3cccc4ccc1c2c34 [TS064, 1-Nitropyrene]
- Carcinogenicity ([1]; classification C+/C−): C+
- Behavior of gene caused by administration of chemical substance ([2]; Gene No. 154, Rn.185941, group (C)): −
- Behavior of gene caused by administration of chemical substance ([2]; Gene No. 533, Rn.106184, group (C)): −
- Behavior of gene caused by administration of chemical substance ([2]; Gene No. 725, Rn.108075, group (C)): −
- Behavior of gene caused by administration of chemical substance ([2]; Gene No. 813, Rn.201760, group (C)): −
- Behavior of gene caused by administration of chemical substance ([2]; Gene No. 893, Rn.164817, group (C)): −
- Behavior of gene caused by administration of chemical substance ([2]; Gene No. 1119, Rn.9757, group (C)): −
- Behavior of gene caused by administration of chemical substance ([2]; Gene No. 1131, Rn.144946, group (C)): −
- Behavior of gene caused by administration of chemical substance ([2]; Gene No. 1163, Rn.11766, group (C)): −
- Behavior of gene caused by administration of chemical substance ([2]; Gene No. 1334, Rn.120914, group (C)): −
- Behavior of gene caused by administration of chemical substance ([2]; Gene No. 1494, Rn.1430, group (B)): −
- Behavior of gene caused by administration of chemical substance ([2]; Gene No. 1562, Rn.14744, group (C)): −
- Behavior of gene caused by administration of chemical substance ([2]; Gene No. 1741, Rn.1647, group (C)): −
- Behavior of gene caused by administration of chemical substance ([2]; Gene No. 1993, Rn.18728, group (C)): −
- Behavior of gene caused by administration of chemical substance ([2]; Gene No. 2026, Rn.167075, group (A)): −
- Behavior of gene caused by administration of chemical substance ([2]; Gene No. 2045, Rn.19329, group (B)): −
- Behavior of gene caused by administration of chemical substance ([2]; Gene No. 2203, Rn.21240, group (B)): +
- Behavior of gene caused by administration of chemical substance ([2]; Gene No. 2494, Rn.23969, group (C)): −
- Behavior of gene caused by administration of chemical substance ([2]; Gene No. 2546, Rn.24561, group (C)): −
- Behavior of gene caused by administration of chemical substance ([2]; Gene No. 3776, Rn.43232, group (C)): −
- Behavior of gene caused by administration of chemical substance ([2]; Gene No. 3929, Rn.4620, group (C)): −
- Behavior of gene caused by administration of chemical substance ([2]; Gene No. 4095, Rn.119024, group (C)): −
- Behavior of gene caused by administration of chemical substance ([2]; Gene No. 4218, Rn.167075, group (A)): −
- Behavior of gene caused by administration of chemical substance ([2]; Gene No. 4846, Rn.144554, group (A)): −
- Behavior of gene caused by administration of chemical substance ([2]; Gene No. 4973, Rn.118529, group (C)): −
- Behavior of gene caused by administration of chemical substance ([2]; Gene No. 5600, Rn.9836, group (A)): −
- Behavior of gene caused by administration of chemical substance ([2]; Gene No. 5634, Rn.9862, group (C)): −
- Behavior of gene caused by administration of chemical substance ([2]; Gene No. 5726, Rn.9939, group (D)): −
- Behavior of gene caused by administration of chemical substance ([2]; Gene No. 5878, Rn.143213, group (C)): −
- Behavior of gene caused by administration of chemical substance ([2]; Gene No. 6026, Rn.167685, group (C)): −
- Behavior of gene caused by administration of chemical substance ([2]; Gene No. 6182, Rn.5834, group (A)): −
- Behavior of gene caused by administration of chemical substance ([2]; Gene No. 6303, Rn.123063, group (C)): −
- Behavior of gene caused by administration of chemical substance ([2]; Gene No. 6620, Rn.120914, group (C)): −
- Behavior of gene caused by administration of chemical substance ([2]; Gene No. 6742, Rn.9779, group (C)): −

Reference: US20110039721A1, “METHOD FOR PREDICTION ABOUT CARCINOGENICITY OF SUBSTANCE IN RODENT” (Chemicals Evaluation and Research Institute, priority 2007, published 2011)
